Source: article PMC11987024, “Kinetic Steering of Amyloid Formation and Polymorphism by Canagliflozin, a Type-2 Diabetes Drug” (Journal of the American Chemical Society, 2025)
Changes are numbered by the printed parent chain.

Assays:
[1] = target: T1, Islet amyloid polypeptide (IAPP, or amylin), wild-type (Homo sapiens, UniProt P10997); test: ThT fluorescence amyloid assembly assay; type: biochemical; conditions: 10 μM IAPP, 50 μM compound, 160 mM ammonium acetate pH 7.4, 1% v/v DMSO, 30 °C, quiescent; mainly inhibits primary nucleation
T1 construct: SEC-purified monomer; N-terminally biotinylated at Lys1 (PEG4) for SPR only; cut from pro-islet amyloid polypeptide
T1 sequence (P10997 34-70): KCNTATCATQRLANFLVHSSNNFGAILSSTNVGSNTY

[2] = target: T1, Islet amyloid polypeptide (IAPP, or amylin), wild-type; test: SPR, biotinylated IAPP on streptavidin chip; type: binding
[3] = target: T2, Islet amyloid polypeptide (IAPP, or amylin), wild-type (Homo sapiens, UniProt P10997, S53G); test: ThT fluorescence amyloid assembly assay; type: biochemical; conditions: 160 mM ammonium acetate pH 7.4, 1% v/v DMSO, 30 °C; inhibition of amyloid formation
T2 construct: SEC-purified monomer; N-terminally biotinylated at Lys1 (PEG4) for SPR only; cut from pro-islet amyloid polypeptide
T2 sequence (P10997 34-70 S53G): T1 sequence (P10997 34-70) with S20G

[4] = target: T1, Islet amyloid polypeptide (IAPP, or amylin), wild-type; test: T1ρ and WaterLOGSY ligand-observed NMR; type: binding; conditions: IAPP monomer; 20 μM IAPP, 100 μM compound, 25 mM sodium phosphate pH 6.8, 1% v/v DMSO-d6, 5 °C

Row | fold-change in half-time of amyloid formation at 50 μM [1] [fold] | Kd [2] [µM] | SMILES | ThT fluorescence amyloid assembly assay [3] | ligand binding (observed by NMR) [4]
1 | 1.61 ± 0.29 |  | COc1cc2nc(N3CCN(C(=O)C4COc5ccccc5O4)CC3)nc(N)c2cc1OC (centres unmarked) [doxazosin] |  | 
2 | 1.55 ± 0.22 | > 150 | Cc1ccc([C@@H]2O[C@H](CO)[C@@H](O)[C@H](O)[C@H]2O)cc1Cc1ccc(-c2ccc(F)cc2)s1 [canagliflozin] | only canagliflozin was able to inhibit amyloid formation by the familial S20G variant of IAPP | further evidence that canagliflozin binds IAPP monomers with strong changes in all protons
